Data as given in patent EP0472181B1, “5-Amine substituted adenosine analogs as immunosuppressants” (MERRELL PHARMACEUTICALS INC., priority 1990, dated 1992).

Tests used:
[1] = tested on: Cloned IL-2 dependent cytolytic T lymphocytes (CTLL-20); assay: Inhibition of interleukin-2 dependent T-cell growth in vitro: cell counts by trypan blue exclusion; assay type: cell-based; details: 10 Units/mL IL-2
Protocol: (§1) Inhibition of interleukin-2 (IL-2) dependent T-cell growth in vitro was determined essentially as described by Bowlin et al. [Cell Immunol. 98, 341-50 (1986)]. Cloned IL-2 dependent cytolytic T lymphocytes (CTLL-20), incubated alone or in the presence of (cis)-5'-deoxy-5'-[(4-amino-2-butenyl) methylamino]adenosine (Compound A) at varying concentrations, were stimulated with 10 Units/mL of IL-2 and were grown in culture. After 72 hours, cell counts were determined based on trypan blue exclusion.
as §1, with “in Example X.” for “by Bowlin et al. [Cell Immunol. 98, 341-50 (1986)].”, “100µM,” for “varying concentrations,”, “culture for 1, 2, 3 or 4 days. At the end of incubation,” for “culture. After 72 hours,”

[2] = tested on: Cloned IL-2 dependent cytolytic T lymphocytes (CTLL-20); assay: Inhibition of interleukin-2 dependent T-cell growth in vitro: DNA synthesis activity by [^3H]-TdR pulse after IL-2 restimulation; assay type: cell-based; details: [^3H]-TdR final 6 hours
Protocol: The CTLL-20 cells were restimulated with IL-2 (10 units/mL) for 24 hours and were pulsed for the final 6 hours with [^3H]-TdR to measure DNA synthesis activity essentially as described by Bowlin et al. [Cell Immunol. 98, 341-50 (1986)].
The CTLL-20 cells were then restimulated with IL-2 (10 units/mL) for 24 hours and were pulsed for the final 6 hours with [^3H]-TdR to measure DNA synthesis activity essentially as described for Example X.

## CN(C/C=C\CN)C[C@H]1O[C@@H](n2cnc3c(N)ncnc32)[C@H](O)[C@@H]1O (relative stereo) [Compound A, (cis)-5'-deoxy-5'-[(4-amino-2-butenyl)methylamino]adenosine]
[1]; Compound A 1 µM, after 72 hours
  Cell Count Number Recovered: 4.0x10^6
[1]; Compound A 10 µM, after 72 hours
  Cell Count Number Recovered: 2.0x10^6
[1]; Compound A 100 µM, after 72 hours
  Cell Count Number Recovered: 1.0x10^6
[1]; T-lymphocyte, 24 h, time course: incubation time 1 day, Compound A 100 µM, read-out: Cell Count (% Reduction over Control) (converted)
  inhibition at 100 µM: 40%
[1]; T-lymphocyte, 48 h, time course: incubation time 2 days, Compound A 100 µM, read-out: Cell Count (% Reduction over Control) (converted)
  inhibition at 100 µM: 78%
[1]; T-lymphocyte, 72 h, time course: incubation time 3 days, Compound A 100 µM, read-out: Cell Count (% Reduction over Control) (converted)
  inhibition at 100 µM: 85%
[1]; T-lymphocyte, 96 h, time course: incubation time 4 days, Compound A 100 µM, read-out: Cell Count (% Reduction over Control) (converted)
  inhibition at 100 µM: 64%
[1]; T-lymphocyte, Compound A 1 µM, after 72 hours, read-out: Cell Count (% Reduction over Group 1) (converted)
  inhibition at 1 µM: 39%
[1]; T-lymphocyte, Compound A 10 µM, after 72 hours, read-out: Cell Count (% Reduction over Group 1) (converted)
  inhibition at 10 µM: 70%
[1]; T-lymphocyte, Compound A 100 µM, after 72 hours, read-out: Cell Count (% Reduction over Group 1) (converted)
  inhibition at 100 µM: 85%
[1]; time course: incubation time 1 day, Compound A 100 µM
  Cell Count Number Recovered: 0.3x10^6
[1]; time course: incubation time 2 days, Compound A 100 µM
  Cell Count Number Recovered: 0.7x10^6
[1]; time course: incubation time 3 days, Compound A 100 µM
  Cell Count Number Recovered: 1.0x10^6
[1]; time course: incubation time 4 days, Compound A 100 µM
  Cell Count Number Recovered: 1.7x10^6
[2]; Compound A 1 µM, 72 hours culture, restimulated with IL-2 10 units/mL for 24 hours
  DNA Synthesis CPM: 19218 CPM
[2]; Compound A 10 µM, 72 hours culture, restimulated with IL-2 10 units/mL for 24 hours
  DNA Synthesis CPM: 10005 CPM
[2]; Compound A 100 µM, 72 hours culture, restimulated with IL-2 10 units/mL for 24 hours
  DNA Synthesis CPM: 8114 CPM
[2]; T-lymphocyte, 48 h, time course: incubation time 2 days, Compound A 100 µM, then IL-2 restimulation 24 hours, read-out: DNA Synthesis (% Reduction over Control)
  inhibition at 100 µM: 45%
[2]; T-lymphocyte, 72 h, time course: incubation time 3 days, Compound A 100 µM, then IL-2 restimulation 24 hours, read-out: DNA Synthesis (% Reduction over Control)
  inhibition at 100 µM: 76%
[2]; T-lymphocyte, 96 h, time course: incubation time 4 days, Compound A 100 µM, then IL-2 restimulation 24 hours, read-out: DNA Synthesis (% Reduction over Control)
  inhibition at 100 µM: 73%
[2]; T-lymphocyte, Compound A 1 µM, 72 hours culture, restimulated with IL-2 10 units/mL for 24 hours, read-out: DNA Synthesis (% Reduction over Group 1)
  inhibition at 1 µM: 43%
[2]; T-lymphocyte, Compound A 10 µM, 72 hours culture, restimulated with IL-2 10 units/mL for 24 hours, read-out: DNA Synthesis (% Reduction over Group 1)
  inhibition at 10 µM: 70%
[2]; T-lymphocyte, Compound A 100 µM, 72 hours culture, restimulated with IL-2 10 units/mL for 24 hours, read-out: DNA Synthesis (% Reduction over Group 1)
  inhibition at 100 µM: 76%
[2]; T-lymphocyte, time course: incubation time 1 day, Compound A 100 µM, then IL-2 restimulation 24 hours, read-out: DNA Synthesis (% Reduction over Control)
  inhibition at 100 µM: 59%
[2]; time course: incubation time 1 day, Compound A 100 µM, then IL-2 restimulation 24 hours
  DNA Synthesis CPM: 7622 CPM
[2]; time course: incubation time 2 days, Compound A 100 µM, then IL-2 restimulation 24 hours
  DNA Synthesis CPM: 6197 CPM
[2]; time course: incubation time 3 days, Compound A 100 µM, then IL-2 restimulation 24 hours
  DNA Synthesis CPM: 8114 CPM
[2]; time course: incubation time 4 days, Compound A 100 µM, then IL-2 restimulation 24 hours
  DNA Synthesis CPM: 8863 CPM
